Source: patent US20250144067A1, “PERSONALIZED STARVATION THERAPY FOR CANCER” (Faeth Therapeutics, Inc., priority 2021, published 2025)
Counter-ions that a name gives are not always drawn.

What was measured:
[1] = system: NCI-H292 lung cancer cells; test: FDA drug screening, complete media vs cholesterol-free media without statin (TABLE 1); assay type: cell-based, human
[2] = system: NCI-H292 lung cancer cells; test: FDA drug screening, complete media vs cholesterol-free media with simvastatin (TABLE 2); assay type: cell-based, human; settings: for Cholesterol-free media + simvastatin (0.04 μM) / Complete Media: NCI-H292 cells
[3] = NCI-H292 cells, cholesterol-free media without statin
[4] = complete vs cholesterol-free media, greater than 0 enhanced anti-cancer activity, about 0 neutral, below 0 antagonists
[5] = drug in cholesterol-free media with simvastatin 0.04 μM
[6] = complete media vs cholesterol-free media + simvastatin (0.04 μM), >0 enhanced anti-cancer activity, about 0 neutral, <0 antagonist
[7] = NCI-H292 cells, cholesterol-free media without statin, FDA drug library screen
[8] = NCI-H292 cells, complete media, FDA drug library screen
[9] = cholesterol-free media with simvastatin 0.04 μM, cell growth value in FDA drug screen
[10] = complete media, cell growth value in FDA drug screen
[11] = complete media minus cholesterol-free media + simvastatin, >0 enhanced anti-cancer activity, about 0 neutral, <0 antagonist
[12] = complete vs cholesterol-free media, >0 enhanced anti-cancer activity, about 0 neutral, <0 antagonist
[13] = Complete minus Cholesterol-free, greater than 0 enhanced anti-cancer activity, about 0 neutral, below 0 antagonist
[14] = NCI-H292 cells, FDA drug library screen, cholesterol-free media without statin
[15] = NCI-H292 cells, FDA drug library screen, complete media
[16] = FDA drug library screen, cholesterol-free media with simvastatin 0.04 μM
[17] = FDA drug library screen, complete media
[18] = Complete minus Cholesterol-free, greater than 0 enhanced anti-cancer activity, about 0 neutral, below 0 antagonists
[19] = NCI-H292 cells in cholesterol-free media without statin
[20] = NCI-H292 cells in complete media
[21] = FDA library drug in cholesterol-free media with simvastatin 0.04 μM
[22] = FDA library drug in complete media
[23] = complete media vs cholesterol-free media + simvastatin (0.04 μM), […]

`C[C@H](C(=O)O)c1cccc(C(=O)c2ccccc2)c1` [S-(+)-Ketoprofen] was tested, and the Cholesterol-free [1, 3] was 1.312, the Complete ([1]; NCI-H292 cells, complete media) was 0.984 and the Difference [1, 4] was −0.33. The “Cholesterol-free media + simvastatin (0.04 μM)” value [2, 5] was 0.9554, the “Complete Media” value ([2]; drug in complete media) was 0.7437 and the Difference [2, 6] was −0.21.

`CC(C)Cc1ccc([C@H](C)C(=O)O)cc1` [(S)-(+)-Ibuprofen] gave a Difference ([1]; Complete minus Cholesterol-free, >0 enhanced anti-cancer activity, about 0 neutral, <0 antagonist) of −0.01, a Cholesterol-free [1, 7] of 1.011 and a Complete [1, 8] of 0.9982. For the same compound, the “Complete Media” value ([2]; drug in complete media) was 0.9605 and the Difference [2, 6] was −0.26.

For `CCC[C@@H]1C[C@@H](C(=O)N[C@@H]([C@H]2O[C@H](SC)[C@H](O)[C@@H](O)[C@H]2O)[C@@H](C)O)N(C)C1` [Lincomycin (hydrochloride monohydrate)], the Cholesterol-free [1, 3] was 1.114, the Complete ([1]; NCI-H292 cells, complete media) was 0.7781 and the Difference [1, 4] was −0.34. The “Cholesterol-free media + simvastatin (0.04 μM)” value [2, 9] was 0.819, the “Complete Media” value [2, 10] was 0.8378 and the Difference [2, 11] was 0.02.

Compound `O=C1Cc2cc(CCN3CCN(c4nsc5ccccc45)CC3)c(Cl)cc2N1` [Ziprasidone (hydrochloride monohydrate)] has a Cholesterol-free [1, 7] of 0.5848, a Complete [1, 8] of 0.8552 and a Difference [1, 12] of 0.27. The “Cholesterol-free media + simvastatin (0.04 μM)” value [2, 9] was 0.5734, the “Complete Media” value [2, 10] was 0.6228 and the Difference [2, 11] was 0.05.

With `CN(C)CC/C=C1/c2ccccc2COc2ccc(CC(=O)O)cc21` [Olopatadine (hydrochloride)] the Difference [1, 13] was −0.13, the Cholesterol-free [1, 14] was 1.018 and the Complete [1, 15] was 0.8917. The “Cholesterol-free media + simvastatin (0.04 μM)” value [2, 16] was 0.9644, the “Complete Media” value [2, 17] was 0.8474 and the Difference [2, 6] was −0.12.

`CC1(C)NC(=O)N(c2ccc([N+](=O)[O-])c(C(F)(F)F)c2)C1=O` [Nilutamide] was tested, and the Difference [1, 18] was −0.63, the Cholesterol-free [1, 19] was 1.565 and the Complete [1, 20] was 0.9342. The “Cholesterol-free media + simvastatin (0.04 μM)” value [2, 21] was 1.474, the “Complete Media” value [2, 22] was 1.003 and the Difference [2, 6] was −0.47.

Compound Rilmenidine (hemifumarate) has a Cholesterol-free [1, 3] of 1.211, a Complete ([1]; NCI-H292 cells, complete media) of 0.771 and a Difference ([1]; complete vs cholesterol-free media, […]) of −0.44. The “Cholesterol-free media + simvastatin (0.04 μM)” value [2, 21] was 1.87, the “Complete Media” value [2, 22] was 1.431 and the Difference [2, 23] was −0.44.

Compound `N[C@@H](Cc1cc(I)c(Oc2cc(I)c(O)c(I)c2)c(I)c1)C(=O)O` [L-Thyroxine (sodium salt pentahydrate)] has a Difference [1, 13] of −0.15, a Cholesterol-free [1, 14] of 1.238 and a Complete [1, 15] of 1.085. The “Cholesterol-free media + simvastatin (0.04 μM)” value [2, 9] was 0.8275, the “Complete Media” value [2, 10] was 0.8532 and the Difference [2, 11] was 0.03.

In the case of `CN1CCc2nc(C(=O)N[C@@H]3C[C@@H](C(=O)N(C)C)CC[C@@H]3NC(=O)C(=O)Nc3ccc(Cl)cn3)sc2C1` [Edoxaban], the Cholesterol-free [1, 7] is reported as 1.603, the Complete [1, 8] is reported as 1.759 and the Difference [1, 12] is reported as 0.16. For the same compound, the “Cholesterol-free media + simvastatin (0.04 μM)” value [2, 5] was 1.032, the “Complete Media” value ([2]; drug in complete media) was 0.8097 and the Difference [2, 6] was −0.22.

Compound `CNC(=O)c1cnn(-c2nc(N)c3ncn([C@@H]4O[C@H](CO)[C@@H](O)[C@H]4O)c3n2)c1` [Regadenoson] has a Difference ([1]; Complete minus Cholesterol-free, […]) of −0.21, a Cholesterol-free [1, 3] of 1.426 and a Complete ([1]; NCI-H292 cells, complete media) of 1.216. For the same compound, the “Cholesterol-free media + simvastatin (0.04 μM)” value [2, 21] was 1.362, the “Complete Media” value [2, 22] was 1.055 and the Difference [2, 23] was −0.31.

`CCc1c(Cl)c(O)c(Cl)c(O)c1C(=O)O[C@H]1[C@H](O)[C@H](OC)[C@H](OC/C2=C\C=C\C[C@H](O)/C(C)=C/[C@H](CC)[C@@H](O[C@@H]3OC(C)(C)[C@@H](OC(=O)C(C)C)[C@H](O)[C@@H]3O)/C(C)=C/C(C)=C/C[C@@H]([C@@H](C)O)OC2=O)O[C@@H]1C` [Fidaxomicin] showed a Difference [1, 18] of −0.71, a Cholesterol-free [1, 19] of 1.405 and a Complete [1, 20] of 0.6951. The “Cholesterol-free media + simvastatin (0.04 μM)” value [2, 21] was 1.494, the “Complete Media” value [2, 22] was 1.227 and the Difference [2, 6] was −0.27.

`CCCCCCCCCCC[C@@H](C[C@@H]1OC(=O)[C@H]1CCCCCC)OC(=O)[C@H](CC(C)C)NC=O` [Orlistat] showed a Cholesterol-free [1, 7] of 1.018, a Complete [1, 8] of 1.513 and a Difference [1, 12] of 0.49. The “Cholesterol-free media + simvastatin (0.04 μM)” value [2, 16] was 1.19, the “Complete Media” value [2, 17] was 1.622 and the Difference [2, 11] was 0.43.
